Experimental data reported in US7566720B2, “2-pyridinyl-6,7,8,9-tetrahydropyrimido[1,2-a] pyrimidin-4-one and 7-pyridinyl-2,3-dihydroimidazo[1,2-a] pyrimidin-5(1H)one derivatives” (Sanofi-Aventis, priority 2000, dated 2009).
Counter-ions that a name gives are not always drawn.

Compound	melting point [°C]
O=C(CCc1ccccc1)N1CCCn2c1nc(-c1ccncc1)cc2=O (as salt: salt) [Compound No 25 of Table 1, 9-[3-phenylpropanoyl]-2-pyridin-4-yl-6,7,8,9-tetrahydro-4H-pyrimido[1,2-a]pyrimidin-4-one]	158 to 160
CC(C(=O)c1ccccc1)N1CCCn2c1nc(-c1ccncc1)cc2=O (racemic) (as salt: hydrochloride) [Compound No 73 of Table 1, 9-[1-methyl-2-oxo-2-phenyl-ethyl]-2-pyridin-4-yl-6,7,8,9-tetrahydro-4H-pyrimido[1,2-a]pyrimidin-4-one]	194 to 196
CC(C(O)c1ccccc1)N1CCCn2c1nc(-c1ccncc1)cc2=O (racemic) [Compound No 74 of Table 1, 9-[1-methyl-2-hydroxy-2-phenyl-ethyl]-2-pyridin-4-yl-6,7,8,9-tetrahydro-4H-pyrimido[1,2-a]pyrimidin-4-one]	232 to 234
O=C(CCc1ccccc1)N1CCCn2c1nc(-c1ccncc1)cc2=O [Compound No 25 of Table 1, 9-[3-phenylpropanoyl]-2-pyridin-4-yl-6,7,8,9-tetrahydro-4H-pyrimido[1,2-a]pyrimidin-4-one]	230 to 232
